According to the NIST ThermoML archive (doi:10.1021/je500804j):

Assay: mn = molality of the nth substance listed, in mol/kg
Settings: 101 kPa, Liquid, Alternating current cell with electrodes

CCCCCCCC[N+](C)(C)CCCCCCCCCCCC[N+](C)(C)CCCCCCCC.[Br-].[Br-] + O
Settings | electrical conductivity [S/m]
298.15 K, m1 = 0.02573 | 0.3337
298.15 K, m1 = 0.02651 | 0.3387
298.15 K, m1 = 0.02727 | 0.3443
298.15 K, m1 = 0.02802 | 0.349
298.15 K, m1 = 0.02877 | 0.3546
298.15 K, m1 = 0.0295 | 0.36
298.15 K, m1 = 0.03022 | 0.3649
298.15 K, m1 = 0.0314 | 0.3728
298.15 K, m1 = 0.03255 | 0.382
298.15 K, m1 = 0.03367 | 0.3883
298.15 K, m1 = 0.03477 | 0.3965
298.15 K, m1 = 0.03689 | 0.4084
298.15 K, m1 = 0.03892 | 0.4221
298.15 K, m1 = 0.04086 | 0.4336
298.15 K, m1 = 0.04272 | 0.4435
298.15 K, m1 = 0.0445 | 0.4525
298.15 K, m1 = 0.04621 | 0.4635
298.15 K, m1 = 0.04785 | 0.4712
298.15 K, m1 = 0.04943 | 0.4799
298.15 K, m1 = 0.05094 | 0.489
298.15 K, m1 = 0.0524 | 0.4951
298.15 K, m1 = 0.05381 | 0.5029
298.15 K, m1 = 0.05517 | 0.5103
298.15 K, m1 = 0.05648 | 0.5162
298.15 K, m1 = 0.05774 | 0.5226
303.15 K, m1 = 0.00388 | 0.06075
303.15 K, m1 = 0.00752 | 0.1306
303.15 K, m1 = 0.01257 | 0.2181
303.15 K, m1 = 0.01415 | 0.2351
303.15 K, m1 = 0.01508 | 0.2505
303.15 K, m1 = 0.01599 | 0.2653
303.15 K, m1 = 0.01688 | 0.2779
303.15 K, m1 = 0.01776 | 0.2879
303.15 K, m1 = 0.01863 | 0.2986
303.15 K, m1 = 0.01948 | 0.3128
303.15 K, m1 = 0.02031 | 0.321
303.15 K, m1 = 0.02194 | 0.3372
303.15 K, m1 = 0.02274 | 0.3504
303.15 K, m1 = 0.02352 | 0.3547
303.15 K, m1 = 0.02429 | 0.3646
303.15 K, m1 = 0.02505 | 0.3691
303.15 K, m1 = 0.02652 | 0.3816
303.15 K, m1 = 0.02725 | 0.3867
303.15 K, m1 = 0.02796 | 0.3925
303.15 K, m1 = 0.02866 | 0.398
303.15 K, m1 = 0.02935 | 0.4046
303.15 K, m1 = 0.03003 | 0.4126
303.15 K, m1 = 0.03114 | 0.4192
303.15 K, m1 = 0.03222 | 0.4277
303.15 K, m1 = 0.03327 | 0.4359
303.15 K, m1 = 0.0343 | 0.4466
303.15 K, m1 = 0.03531 | 0.4517
303.15 K, m1 = 0.03629 | 0.4591
303.15 K, m1 = 0.03725 | 0.4681
303.15 K, m1 = 0.03819 | 0.4739
303.15 K, m1 = 0.03911 | 0.4794
303.15 K, m1 = 0.04 | 0.4859
303.15 K, m1 = 0.04174 | 0.4978
303.15 K, m1 = 0.0434 | 0.5113
303.15 K, m1 = 0.04498 | 0.5211
303.15 K, m1 = 0.04651 | 0.5314
303.15 K, m1 = 0.04797 | 0.5413
303.15 K, m1 = 0.04938 | 0.5513
303.15 K, m1 = 0.05073 | 0.56
303.15 K, m1 = 0.05203 | 0.5681
303.15 K, m1 = 0.05328 | 0.5759
303.15 K, m1 = 0.05448 | 0.5835
308.15 K, m1 = 0.00358 | 0.06093
308.15 K, m1 = 0.00694 | 0.1384
308.15 K, m1 = 0.01011 | 0.2008
308.15 K, m1 = 0.01163 | 0.23
308.15 K, m1 = 0.01311 | 0.2551
308.15 K, m1 = 0.01539 | 0.2922
308.15 K, m1 = 0.01622 | 0.3053
308.15 K, m1 = 0.01704 | 0.3166
308.15 K, m1 = 0.01784 | 0.3262
308.15 K, m1 = 0.01863 | 0.3371
